# Assay results taken from patent US20040002465A1, “Polyene macrolide derivatives, use for vectoring molecules” (UNIVERSITE PIERRE ET MARIE CURIE, priority 1998, published 2004).
# Key:
# [1] = test system: ATCC 10261 Candida albicans; assay: Antifungal activity, growth inhibition of Candida albicans culture; assay type: cell-based; conditions: concentration inducing 50% inhibition of strain growth; liquid Sabouraud medium, 24 hours at 30° C., spectrophotometry at 660 nm
# Description: More particularly, each compound was incubated at different concentrations with a culture of ATCC 10261 Candida albicans (inoculum, […]) in liquid Sabouraud medium for 24 hours at 30° C. Cell growth was then measured by spectrophotometry at a wavelength of 660 nm.
# [2] = test system: 3T3 cells; assay: Internalisation of FITC-labelled antisense oligonucleotide, confocal microspectrofluorimetry; assay type: cell-based; conditions: 4 hours
# [3] = test system: MCF 7 cells; assay: Internalisation of FITC-labelled anti-gene oligonucleotide; assay type: cell-based, human; conditions: charge ratio 5, compared with AmE, Lipofectine or free oligonucleotides
# [4] = test system: 27-mer oligonucleotide (ODN) in 10% (v/v) foetal calf serum; assay: Seric degradation of delivered oligonucleotide, gel autoradiography; conditions: +/− charge ratio 10, 10% (v/v) foetal calf serum, 37° C., up to 16 hours; versus non delivered ODN
# Description: A 27-mer oligonucleotide (ODN) was rendered radioactive by labelling at the 5′ end with ^32P using a standard procedure (Pharmacia) using T4 polynucleotide kinase and ^32(γ)ATP. A small quantity of this ^32P labelled ODN was mixed with cold ODN. AmA was added in a concentration such that the +/− charge ratio was 10 and the complex was allowed to form at ambient temperature for 30 minutes. A sample containing no AmA constituted the control (non delivered ODN). ODN degradation was triggered at time 0 at 37° C. by adding 10% (v/v) foetal calf serum in which the enzymatic activity was essentially 3′-exonucleasic (Sirotkin, Cooley et al., 1978). At intervals, samples were removed for which the action of the enzymes was stopped by adding formamide and placing the tube in ice. The reaction wsa stopped after 4, 6, 8 and 16 hours of incubation with the serum. The samples were then migrated on a denaturing (7 M urea) 20% polyacrylamide gel.
# [5] = test system: P-gp in NIH-MDR G185 cells (3T3 R); assay type: cell-based, human
# Sequence of P-gp in NIH-MDR G185 cells (3T3 R) (P08183 whole entry): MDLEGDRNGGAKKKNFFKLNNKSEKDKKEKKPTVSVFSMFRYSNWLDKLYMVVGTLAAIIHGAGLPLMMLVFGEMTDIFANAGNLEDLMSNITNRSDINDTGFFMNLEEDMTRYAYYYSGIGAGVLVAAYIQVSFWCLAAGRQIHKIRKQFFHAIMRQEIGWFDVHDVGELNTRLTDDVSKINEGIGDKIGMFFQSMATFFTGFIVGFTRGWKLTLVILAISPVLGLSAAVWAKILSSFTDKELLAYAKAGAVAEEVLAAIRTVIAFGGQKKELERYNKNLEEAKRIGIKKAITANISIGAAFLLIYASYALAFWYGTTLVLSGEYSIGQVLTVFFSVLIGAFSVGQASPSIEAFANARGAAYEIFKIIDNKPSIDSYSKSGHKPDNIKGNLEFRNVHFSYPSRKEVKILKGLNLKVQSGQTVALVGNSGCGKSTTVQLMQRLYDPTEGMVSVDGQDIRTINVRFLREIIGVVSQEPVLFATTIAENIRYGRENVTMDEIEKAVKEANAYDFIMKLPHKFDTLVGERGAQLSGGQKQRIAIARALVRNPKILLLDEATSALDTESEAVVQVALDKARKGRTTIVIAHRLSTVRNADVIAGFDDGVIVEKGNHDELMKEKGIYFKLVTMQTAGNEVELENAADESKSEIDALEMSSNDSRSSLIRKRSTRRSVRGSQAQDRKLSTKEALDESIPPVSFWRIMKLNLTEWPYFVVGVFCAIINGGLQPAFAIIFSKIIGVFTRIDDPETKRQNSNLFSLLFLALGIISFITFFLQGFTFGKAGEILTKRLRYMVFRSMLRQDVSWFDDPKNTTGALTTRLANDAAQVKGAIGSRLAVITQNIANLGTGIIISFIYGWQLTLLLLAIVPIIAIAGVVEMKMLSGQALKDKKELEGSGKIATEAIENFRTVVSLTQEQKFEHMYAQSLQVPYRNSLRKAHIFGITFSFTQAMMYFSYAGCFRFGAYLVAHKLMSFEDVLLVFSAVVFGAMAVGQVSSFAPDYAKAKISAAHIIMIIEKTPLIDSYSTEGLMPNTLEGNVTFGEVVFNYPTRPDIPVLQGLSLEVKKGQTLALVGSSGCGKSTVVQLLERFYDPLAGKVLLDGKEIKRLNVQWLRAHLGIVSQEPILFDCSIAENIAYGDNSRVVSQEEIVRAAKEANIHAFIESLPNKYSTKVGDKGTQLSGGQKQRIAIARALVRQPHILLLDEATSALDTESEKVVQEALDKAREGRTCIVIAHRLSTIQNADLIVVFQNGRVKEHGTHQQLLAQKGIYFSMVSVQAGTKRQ
# [6] = test system: 3T3 cells; assay: Toxicity of AmA with or without antisense oligonucleotide, MTT cellular viability; conditions: 4 hours at 37° C.
Molecule,IC50 [1],other results
"CC1C=CC=CC=CC=CC=CC=CC=CC(OC2OC(C)C(O)C(N)C2O)CC2OC(O)(CC(O)CC(O)C(O)CCC(O)CC(O)CC(=O)OC(C)C(C)C1O)CC(O)C2C(=O)NCCc1ccccn1 (stereo not drawn) [AMPEA, Amphotericin B 2-(2-pyridyl)ethylamide]",0.015 µg/mL,
Amphotericin B-2-(morpholyl)ethylamide [AMMEA],0.013 µg/mL,
"N-(Nα, Nα, Nα,Nε, Nε, Nε,-hexamethyl) AME [MLAME]",0.15 µg/mL,
2-dimethylaminoethyl ester of amphotericin B [AMEE],0.08 µg/mL,
Amphotericin B 3-dimethylaminopropyl ester [AMPE],0.10 µg/mL,
L-aspartate salt of OAMA [OAMA L-aspartate],0.17 µg/mL,
Amphotericin B N1-sperminylamide [AMSA],0.10 µg/mL,
Amphotericin B dimethylaminopropylamide [AMA],,"intracellular distribution of fluorescence ([2]; nucleus versus cytoplasm): distributed homogeneously inside the cells; internalisation of fluorescent oligonucleotide (fluorescence intensity of cells) ([2]; AmA 1×10^−5 M and 2×10^−5 M, compared with AmE, Lipofectine (20 μg/ml) or the oligonucleotides alone): much greater internalisation; internalisation of fluorescent oligonucleotide (fluorescence intensity of cells) [3]: much greater internalisation; seric degradation of the delivered oligonucleotide [4]: slowed that degradation; synthesis of P-gp, possible vector effect [5]: did not itself inhibit synthesis of P-gp; concentration below which cell growth appears to have been stimulated ([6]; MTT): below 10^−5 M; concentration below which no toxicity was observed (cellular viability, MTT) ([6]; serum-free DMEM, AmA in the presence or absence of oligonucleotide): below 2×10^−5 M"
N-ornithyl-AMA [OAMA],0.15 µg/mL,
Amphotericin B (N^2-lysyllysine methylester) amide [AMDLA],0.12 µg/mL,
N-(4-methyl-1-piperazinepropionyl) AMPA [PAMPA],0.17 µg/mL,
N-(1-piperdinepropionyl) AME [PAME],0.15 µg/mL,
N-(4-methyl-1-piperazinepropionyl)AME [PNAME],0.16 µg/mL,
N-(N′-3-dimethylaminopropyl-succinimido) amphotericin B methyl ester [SAME],0.125 µg/mL,
"CC1C=CC=CC=CC=CC=CC=CC=CC(OC2OC(C)C(O)C(N)C2O)CC2OC(O)(CC(O)CC(O)C(O)CCC(O)CC(O)CC(=O)OC(C)C(C)C1O)CC(O)C2C(=O)N1CCN(C)CC1 (stereo not drawn) [AMPA, Amphotericin B B-4-methylpiperizyne amide]",0.015 µg/mL,
